Assay results as given in patent publication US10508310B2, “Method of predicting a response to an anti-tumor treatment” (SORBONNE UNIVERSITE, priority 2013, dated 2019).

Assays:
Format in all cases: in vivo, mice
BC11 breast cancer PDX = test: Tumor growth rate in BC11 patient-derived xenograft treated by DPT-C9h
Method: (§1) Breast-cancer patient xenografts (PDXs) were obtained by direct implant of patient tumor fragments in immunocompromised mice. (Arrouss Et al, PlosOne. 2013. 8, e60816).
(§2) Nine models treated by DPT-C9h (5 mg/kg/d IP, 5 days weekly, 4 to 6 weeks) were selected for the study, i.e. 7 breast cancer PDXs (BC11, BC52, BC143, BC146, BC173, BC227, and BC256), and 2 ovarian cancer PDXs (OV14 and OVM33). Three tumors of both control and treated groups were collected at the end of therapy, except for the BC146 for which 2 control tumors and 3 treated tumors were obtained. For each collected tumor, tumor volume was estimated according to the following formulae: V=a×b2/2, where a and b are the largest and the smallest perpendicular tumor diameters.
(§3) In a second time, a median TGR was defined for the control and treated groups of each PDX model. Finally, a ratio was calculated for each PDX model, as: median TGR of the treated group/median TGR of the corresponding control group. The inventors considered that a model was responder to DPT-C9h if the ratio was ≤0.5 (p<0.05), and resistant if the ratio was ≥0.8. In this, 3 models were considered as responder (BC52, BC173 and OV14), 4 as resistant (BC11, BC146, BC227, and BC256), and 2 remained undefined and were excluded from analyses (BC143 and OVM33) (Table 1).

BC173 breast cancer PDX = test: Tumor growth rate in BC173 patient-derived xenograft treated by DPT-C9h
Method: as §1, §2, §3

BC256 breast cancer PDX = test: Tumor growth rate in BC256 patient-derived xenograft treated by DPT-C9h
Method: as §1, §2, §3

OVM33 ovarian cancer PDX = test: Tumor growth rate in OVM33 patient-derived xenograft treated by DPT-C9h
Method: as §2, §3

OV14 ovarian cancer PDX = test: Tumor growth rate in OV14 patient-derived xenograft treated by DPT-C9h
Method: as §2, §3

BC146 breast cancer PDX = test: Tumor growth rate in BC146 patient-derived xenograft treated by DPT-C9h
Method: as §1, §2, §3

BC227 breast cancer PDX = test: Tumor growth rate in BC227 patient-derived xenograft treated by DPT-C9h
Method: as §1, §2, §3

BC143 breast cancer PDX = test: Tumor growth rate in BC143 patient-derived xenograft treated by DPT-C9h
Method: as §1, §2, §3

BC52 breast cancer PDX = test: Tumor growth rate in BC52 patient-derived xenograft treated by DPT-C9h
Method: as §1, §2, §3

[1] = TGR of treated group / TGR of control group
[2] = TGR=Vf/V1, 5 mg/kg/d IP, 5 days weekly, 4 to 6 weeks, end of therapy
[3] = responder if ratio ≤0.5 (p<0.05), resistant if ratio ≥0.8

VKKKKIKREIKI-YVETLDGIFEQWAHSEDL (VKKKKIKREIKIYVETLDGIFEQWAHSEDL; chimeric peptide) [DPT-C9h]
Ratio TGR (BC11 breast cancer PDX; [1]): 0.90 | Mean TGR DPT (BC11 breast cancer PDX; [2]): 24.3 | conclusion (responder / resistant) (BC11 breast cancer PDX; class from ratio TGR): − (−: resistant) | model response to DPT-C9h (in words) (BC11 breast cancer PDX; [3]): resistant | Ratio TGR (BC173 breast cancer PDX; [1]): 0.45 | Mean TGR DPT (BC173 breast cancer PDX; [2]): 6.0 | conclusion (responder / resistant) (BC173 breast cancer PDX; class from ratio TGR): + (+: responder) | model response to DPT-C9h (in words) (BC173 breast cancer PDX; [3]): responder | Ratio TGR (BC256 breast cancer PDX; [1]): 1.23 | Mean TGR DPT (BC256 breast cancer PDX; [2]): 38.7 | conclusion (responder / resistant) (BC256 breast cancer PDX; class from ratio TGR): − (−: resistant) | model response to DPT-C9h (in words) (BC256 breast cancer PDX; [3]): resistant | Ratio TGR (OVM33 ovarian cancer PDX; [1]): 0.65 | Mean TGR DPT (OVM33 ovarian cancer PDX; [2]): 35.0 | conclusion (responder / resistant) (OVM33 ovarian cancer PDX; class from ratio TGR): ND (ND: unidentified) | model response to DPT-C9h (in words) (OVM33 ovarian cancer PDX; [3]): undefined | Ratio TGR (OV14 ovarian cancer PDX; [1]): 0.44 | Mean TGR DPT (OV14 ovarian cancer PDX; [2]): 10.7 | conclusion (responder / resistant) (OV14 ovarian cancer PDX; class from ratio TGR): + (+: responder) | model response to DPT-C9h (in words) (OV14 ovarian cancer PDX; [3]): responder | Ratio TGR (BC146 breast cancer PDX; [1]): 0.96 | Mean TGR DPT (BC146 breast cancer PDX; [2]): 34.7 | conclusion (responder / resistant) (BC146 breast cancer PDX; class from ratio TGR): − (−: resistant) | model response to DPT-C9h (in words) (BC146 breast cancer PDX; [3]): resistant | Ratio TGR (BC227 breast cancer PDX; [1]): 1.38 | Mean TGR DPT (BC227 breast cancer PDX; [2]): 6.0 | conclusion (responder / resistant) (BC227 breast cancer PDX; class from ratio TGR): − (−: resistant) | model response to DPT-C9h (in words) (BC227 breast cancer PDX; [3]): resistant | Ratio TGR (BC143 breast cancer PDX; [1]): 0.68 | Mean TGR DPT (BC143 breast cancer PDX; [2]): 27.7 | conclusion (responder / resistant) (BC143 breast cancer PDX; class from ratio TGR): ND (ND: unidentified) | model response to DPT-C9h (in words) (BC143 breast cancer PDX; [3]): undefined | Ratio TGR (BC52 breast cancer PDX; [1]): 0.38 | Mean TGR DPT (BC52 breast cancer PDX; [2]): 15.3 | conclusion (responder / resistant) (BC52 breast cancer PDX; class from ratio TGR): + (+: responder) | model response to DPT-C9h (in words) (BC52 breast cancer PDX; [3]): responder
